From patent US20050209336A1, “EP2 receptor agonists” (priority 2003, published 2005)
Where two headings read alike, the source gives them in different places.

How the values were obtained:
human EP2 receptor [1] = target: T1, human EP2 receptor (Homo sapiens, UniProt P43116); assay: Radioligand ([3H]PGE2) competition displacement binding, human EP2 receptor membranes; settings: human EP2 membranes, [3H]PGE2 displacement, Cheng-Prusoff; mean of 4 experiments; read-out: pKi EP2 (converted)
T1 construct: expressed in transfected cells; host or cells: HEK cells (HEK-EP2)
T1 sequence (P43116 whole entry): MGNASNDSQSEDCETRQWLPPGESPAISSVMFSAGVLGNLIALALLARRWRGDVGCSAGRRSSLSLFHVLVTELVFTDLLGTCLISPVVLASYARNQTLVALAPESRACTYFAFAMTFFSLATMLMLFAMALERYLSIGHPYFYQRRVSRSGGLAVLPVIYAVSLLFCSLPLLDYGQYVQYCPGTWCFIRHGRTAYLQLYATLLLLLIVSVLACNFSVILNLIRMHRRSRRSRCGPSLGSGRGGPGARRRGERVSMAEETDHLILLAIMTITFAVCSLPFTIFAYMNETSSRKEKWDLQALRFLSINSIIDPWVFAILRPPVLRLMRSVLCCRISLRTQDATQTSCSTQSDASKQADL
Procedure: (§1) Membranes were prepared from cells stably transfected with human EP receptor cDNA. In brief, cells were cultured to confluency, scraped from culture flasks, and centrifuged (800 g, 8 minutes, 4° C.). Cells were twice washed in ice cold homogenisation buffer containing 10 mMTris-HCl, 1 mM EDTA.2Na, 250 mM sucrose, 1 mM PMSF, 0.3 mM indomethacin, pH 7.4, homogenised and re-centrifuged as before. The supernatant was stored on ice and pellets re-homogenised and re-spun. Supernatants were pooled and centrifuged at 40000 g, 10 minutes, 4° C. Resultant membrane pellets were stored at −80° C. until use.
(§2) For assay, membranes expressing human EP4, EP3, EP2 or EP1 receptors were incubated in Millipore (MHVBN45) plates containing assay buffer, radiolabelled [^3H]PGE2 and 0.1 to 10 000 nM concentrations of compounds. Incubations were performed at suitable temperatures and for suitable times to allow equilibrium to be reached. Non-specific binding was determined in the presence of 10 uM PGE2. Bound and free radiolabel was separated by vacuum manifold filtration using appropriate wash buffers, and bound radiolabel was determined by scintillation counting. Constituents of each of the buffers are included in table 4 below.
(§3) The affinity or pKi of each compound for each receptor was calculated from the concentration causing 50% radioligand displacement (IC50) using the Cheng-Prusoff equation: [formula]
(§4) This approach follows that set out in Kenakin, T. P., Pharmacologic analysis of drug receptor interaction. Raven Press, New York, 2nd edition.

human EP3 receptor = target: T2, human EP3 receptor (Homo sapiens, UniProt P43115); assay: Radioligand ([3H]PGE2) competition displacement binding, human EP3 receptor membranes; settings: [3H]PGE2 displacement, read-out: pKi EP3 (converted)
T2 construct: expressed in transfected cells
T2 sequence (P43115 1-390): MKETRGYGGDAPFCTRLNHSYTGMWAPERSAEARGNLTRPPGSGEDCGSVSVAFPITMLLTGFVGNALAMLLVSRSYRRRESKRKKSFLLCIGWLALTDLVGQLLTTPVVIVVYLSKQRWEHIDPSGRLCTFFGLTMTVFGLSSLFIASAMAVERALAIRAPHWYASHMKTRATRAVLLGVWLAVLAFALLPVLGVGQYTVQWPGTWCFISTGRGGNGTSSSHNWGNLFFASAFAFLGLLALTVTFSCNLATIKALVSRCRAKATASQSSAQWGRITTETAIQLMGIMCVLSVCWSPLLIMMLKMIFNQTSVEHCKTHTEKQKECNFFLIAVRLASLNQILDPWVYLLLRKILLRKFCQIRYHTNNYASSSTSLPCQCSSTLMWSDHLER
Procedure: as §1, §2, §3, §4

human EP4 receptor = target: T3, human EP4 receptor (Homo sapiens, UniProt P35408); assay: Radioligand ([3H]PGE2) competition displacement binding, human EP4 receptor membranes; settings: [3H]PGE2 displacement, read-out: pKi EP4 (converted)
T3 construct: expressed in transfected cells
T3 sequence (P35408 whole entry): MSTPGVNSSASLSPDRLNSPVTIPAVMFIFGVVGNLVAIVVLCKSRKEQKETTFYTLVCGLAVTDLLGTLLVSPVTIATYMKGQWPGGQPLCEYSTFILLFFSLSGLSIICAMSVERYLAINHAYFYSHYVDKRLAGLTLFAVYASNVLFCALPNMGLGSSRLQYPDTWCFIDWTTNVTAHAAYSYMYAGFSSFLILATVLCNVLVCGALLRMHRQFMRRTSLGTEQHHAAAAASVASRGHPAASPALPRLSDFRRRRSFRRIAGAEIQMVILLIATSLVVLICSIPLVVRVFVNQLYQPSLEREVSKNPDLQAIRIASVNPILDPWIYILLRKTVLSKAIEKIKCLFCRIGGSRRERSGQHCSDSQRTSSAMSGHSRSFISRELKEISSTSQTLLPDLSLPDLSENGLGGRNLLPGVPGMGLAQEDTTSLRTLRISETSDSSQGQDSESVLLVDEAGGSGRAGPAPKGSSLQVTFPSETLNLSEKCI
Procedure: as §1, §2, §3, §4

human EP2 receptor [2] = target: T1, human EP2 receptor; assay: cAMP production in HEK cells stably expressing the human EP2 receptor; format: cell-based; settings: 15 min stimulation, 4 experiments, read-out: Mean EC50
Procedure: The following describes an in vitro assay to determine the effect of compounds on cyclase production, that is, to determine their functional efficacy at the EP2 receptor.
HEK cells stably expressing the human EP2 receptor were used for these assays. HEK-EP2 cells were cultured in 96-well, poly-L-lysine coated plates at a density of 50,000 cells/well, and grown to confluence in humidified […] at 37° C. Culture medium was DMEM supplemented with 10% foetal bovine serum, 100 U/ml penicillin, […], 2.5 µg/ml fungizone, 2 mM glutamine, 250 µg/ml geneticin and 200 µg/ml zeocin.
On reaching confluence, culture media was rinsed off using DMEM with no additions, before 175 µl assay buffer (DMEM containing 1 mM 3-isobutyl-1-methylxanthine and 3 µM indomethacin) was added to each well. This was allowed to incubate for 1 hr before the cells were stimulated with the test compounds (in triplicate) at final concentrations of 10^−9M to 10^−5M for 15 minutes. The assay was terminated by the addition of 25 µl 1M hydrochloric acid. Plates were then frozen for a minimum of 12 hours or until required for radioligand displacement assay.
Plates were thawed quickly at 37° C., and neutralised with 25 µl 1M sodium hydroxide. 30 µl of supernatant was transferred to 96-well Millipore (MAFNOB) plates coated with 0.1% Polyethylenimine. These supernatants were diluted by addition of 90[…]1 cAMP assay buffer (50 mM Tris, 5 mM EDTA, pH 7.0). A cAMP standard curve (10^−11M to 10^−5M) was constructed. 15 µl of 3′:5′-cAMP-dependent protein kinase (final concentration 8 µg/well), and 15 µl [^3H]-cAMP (final concentration 2 nM/well) were added to each well.
Plates were incubated on ice for 2 hours, before bound and free radiolabel were separated by vacuum filtration harvesting on the Millipore manifold, using ice cold water as the termination buffer. Filter plates were allowed to dry overnight, before addition of 50 µl Microscint. Radioactivity was determined using the Microbeta Trilux scintillation counter. cAMP accumulation was determined from the standard curve, and the values plotted as pmoles cAMP/well.

[3] = test system: IL-2 production by OKT3 activated T cells; assay: Lymphocyte assay: IL-2 production by anti-CD3 (OKT3) stimulated T cells; format: cell-based, human; settings: inhibition of IL-2 production, 24 h; for EC50: read-out: Mean EC50; for Mean Log (EC50): log scale
From the text: (§5) Lymphocytes are mononuclear leukocytes, which participate in specific immune responses to foreign antigens and in the manifestation of auto-immune diseases. T lymphocytes produce IL-2, a key factor for lymphocyte activation and proliferation, in response to antigen stimulation via the CD3-T cell receptor complex and the pathway involved in this response is the NF-AT. […] A lymphocyte assay was designed to model this response and to determine the effect of test compound on IL-2 production by anti-CD3-stimulated T cells isolated from peripheral blood. This assay uses a sub-optimal dose of an anti-CD3 monoclonal antibody (OKT3, 25 ng/ml) immobilised to a 96-well plate to stimulate a T cell response. The level of IL-2 released into the cell culture supernatants was quantified using a standard sandwich ELISA. Similarly, other cytokines such as TNFα and IFN-γ can also be measured in the same assay.
(§6) Human peripheral blood mononuclear cells from healthy volunteers were isolated from whole blood by Ficoll-Hypaque density centrifugation and adherence to plastic. The non-adherent lymphocyte fraction was used to set up the lymphocyte assay and the adherent monocytes were then recovered by scraping and subsequently used in the monocyte assay.
(§7) Lymphocytes were then seeded to a 96-well plate pre-coated with anti-CD3 monoclonal antibody (OKT3) at 25 ng/ml and immediately, the test compounds (Peak 1, mixture 1 acid; Peak 1, mixture 2 acid; AH-13205 racemate; PGE2) in appropriate dilutions were added to corresponding wells according to the experimental design. The plate was incubated for 24 hours at 37° C. with 5% CO2 in air and supernatants were recovered for ELISA analysis at the end of incubation period. The levels of IFN-γ was assessed by using the ProteoPlex 16 well human cytokine array assay kit according to the manufacturer's instruction.

[4] = test system: TNFα production by lymphocytes; assay: Lymphocyte assay: TNFα production; format: cell-based, human; settings: inhibition of TNFα production by lymphocytes, mean of three donors; for EC50: read-out: Mean EC50; for Mean Log (EC50): log scale
From the text: as §5, §6, §7

lymphocyte proliferation = assay: Lymphocyte proliferation driven by immobilised anti-CD3 antibody; format: cell-based, human; settings: inhibition of lymphocyte proliferation, 72 h, mean of three donors; for EC50: read-out: Mean EC50; for Mean Log (EC50): log scale
From the text: as §5, §6
For the measurement of lymphocyte proliferation driven by immobilised anti-CD3 monoclonal antibody, the assay was set up in the same way as for the measurement of IL-2 release, except that the cells were cultured for 72 hours in the presence or absence of test compounds. Four hours prior to the termination of the proliferation assay, a novel tetrazolium compound solution supplied by Promega in the format of Cell Proliferation Assay Kit was added to individual wells according to the manufacturer's instruction. The plate was then placed back in the incubator for the remaining 4 hours and the […] reaction was measured using a spectrophotometer at an absorbent wavelength of 490 nm (SpectraMax, Molecular Devices) according to the manufacturer's instruction.

[5] = test system: TNFα production by alveolar macrophages; assay: Alveolar macrophage assay: LPS-induced TNFα release; format: cell-based, human; settings: inhibition of TNFα production, LPS 1 μg/ml, 24 h, mean of three donors
Procedure: Human lung parenchyma was cut into small pieces and perfused with ice-cold phosphate buffered saline (PBS) to remove contaminating blood and mucus. The tissues were then chopped with scissors in the presence of Minimum Essential Medium supplemented with penicillin, streptomycin, L-glutamine and DNase (0.25 mg/ml). The chopped tissues were shaken gently to dislodge the macrophages. A crude cell suspension was then obtained by the removal of the tissues with a sterile filter (150 μm pore size). The resulting cell suspension was spun and the cell pellet collected. Contaminating red blood cells were depleted with a red blood cell lysis buffer and the remaining cells washed twice with PBS by centrifugation. Alveolar macrophages were then purified from this cell preparation by using a positive selection method for CD14-molecule bearing cells using a VarioMac™ Separator and respective positive selection reagents and columns supplied by Miltenyi Biotec Ltd according to the manufacturer's instruction.
For the assay, alveolar macrophages were resuspended in complete culture medium consisting of RPMI1640 supplemented with 10% foetal calf serum, L-glutamine and antibiotics. The cells were then plated into 24 well plates (4×10^5 cell/well) and incubated overnight at 37° C. with 5% CO2 in air to allow cell adherence. The exhausted medium was then removed from the plates and the plates rinsed briefly with fresh medium before the addition of test compound solutions. The test compounds were incubated with the cells for 30 minutes before the addition of E. Coli LPS (1 μg/ml). The assay plates were incubated in a humidified incubator at 37° C. with 5% CO2 in air for 24 hours. The release of TNFα by the cells into the culture supernatants was quantified using an ELISA kit (DuoSet® human TNFα ELSIA Development System) supplied by R+D Systems (Europe) according to the manufacturer's instruction. Indomethacin at 3 μM was included in all treatments to inhibit the possible release of endogenous prostaglandin E2.

[6] = test system: human myometrial smooth muscle; assay: Human myometrial activity: inhibition of electrical field stimulation (EFS) induced contractions; format: cell-based; settings: at 10^-4M, n=7 donors
Procedure: The following describes an in vitro functional assay, using human myometrial smooth muscle, to determine the affinity of the test compounds at the EP2 receptor in human tissues.
Sections of human myometrium were prepared from samples of surgically removed uterus longitudinal myometrial muscle strips (2 mm wide by 10 mm long) were then cut and suspended between stainless steel hooks in organ chambers containing oxygenated (95% O2/5% CO2) Krebs solution at 37° C. The composition of the Krebs solution was as follows: NaCl (118.2 mM), KCl (4.69 mM), MgSO4.7H2O (1.18 mM), KH2PO4 (1.19 mM), glucose (11.1 mM), NaHCO3 (25.0 mM), CaCl2.6H2O (2.5 mM), indomethacin 3×10^−6M.
Tissues were placed under a tension equivalent to 25 mN and left overnight at room temperature. The following day the tissues were maintained at 37° C., washed and placed under a tension of 15 mN then allowed to equilibrate for a period of at least 30 minutes. Responses were recorded using isometric transducers coupled to an Apple Macintosh computer via a MacLab interface. After 60 minutes, the muscle sections of the human myometrium were stimulated electrically (15 ms pulse width, for 10 s every 100 s at 15V and 0.5-40 Hz) using parallel platinum wire electrodes and a Multistim D330 pulse stimulator. Upon electrical stimulation, the strips of human myometrial smooth muscle responded with a rapid contraction. Once the response to electrical stimulation had stabilised (stimulated responses differed by no more than 10%), the strips were exposed to increasing concentrations of test compounds (1×10^−7 to 1×10^−4M, incubated for at least 15 minutes at each concentration). At the end of the experiment, application of sodium nitroprusside (SNP, a nitric oxide donor that causes smooth muscle relaxation) (1×10^−4M) was used to produce a standard relaxatory response. To determine the affinity of the compounds, the concentration of test compound required to produce half-maximal effects (EC50) was calculated, as was the maximum response (calculated as a percentage of the standard response produced with SNP).

[7] = mean of four donors (FIG. 9, table 7)
[8] = mean of three to five donors (FIG. 10, table 8)

Row | Ki (human EP2 receptor [1]) [nM] | Ki (human EP3 receptor) [nM] | Ki (human EP4 receptor) [nM] | EC50 (human EP2 receptor [2]) [nM] | EC50 [3, 8] [nM] | Mean Log (EC50) [3, 8] | EC50 [4] [nM] | Mean Log (EC50) [4] | Compound | EC50 (lymphocyte proliferation) [nM] | Mean Log (EC50) (lymphocyte proliferation) | other results
1 | 501 | 20000 | 15800 | 407 | – | – | – | – | CCCCC[C@@H](O)c1ccc([C@@H]2CCC(=O)[C@H]2CCCCCCC(=O)O)cc1 (single isomer, unassigned) [Peak 2, Mixture 2 acid] | – | – | –
2 | – | – | – | – | 124 | −6.906 | 292 | −6.535 | butaprost | 996 | −6.015 | –

More lines, now with the values behind:

Row | Compound | Ki (human EP2 receptor [1]) [nM] | Ki (human EP3 receptor) [nM] | Ki (human EP4 receptor) [nM] | EC50 (human EP2 receptor [2]) [nM] | EC50 [3, 8] [nM] | Mean Log (EC50) [3, 8] | EC50 [4] [nM] | Mean Log (EC50) [4] | EC50 (lymphocyte proliferation) [nM] | Mean Log (EC50) (lymphocyte proliferation) | other results
3 | CCCCC[C@H](O)c1ccc([C@@H]2CCC(=O)[C@H]2CCCCCCC(=O)O)cc1 (single isomer, unassigned) [Peak 2, Mixture 1 acid] | 1580 | 15800 | 31600 | 323 | – | – | – | – | – | – | –
4 | CCCCC[C@H](O)/C=C/[C@H]1[C@H](O)CC(=O)[C@@H]1C/C=C\CCCC(=O)O [PGE2, prostaglandin E2] | – | – | – | – | 21.1 | −7.677 | 10.7 | −7.971 | 25.8 | −7.589 | EC50 [3, 7]: 28 nM; Mean Log (EC50) [3, 7]: −7.554; EC50 ([5]; read-out: Mean EC50): 125 nM; Mean Log (EC50) ([5]; log scale): −6.904
5 | CC(C)(C)NCC(O)c1cc(O)cc(O)c1 (stereo not shown) [terbutaline, reference compound] | – | – | – | – | – | – | – | – | – | – | % of the control EFS-induced contraction [6]: 98±5%
